The record followed here is patent publication US4003936A, “2-Hydrocinnampyl-1,3-cyclopentanediones” (Zaidan Hojin Biseibutsu Kagaku Kenkyu Kai, priority 1970, dated 1977).

For orientation: inhibition means the drop in the measured response relative to a control, in per cent. Usually LD50 stands for the dose at which mortality reaches 50%.

One data set has as its target T1, tyrosine hydroxylase (Bos taurus, UniProt P17289).
T1 sequence (P17289 1-491): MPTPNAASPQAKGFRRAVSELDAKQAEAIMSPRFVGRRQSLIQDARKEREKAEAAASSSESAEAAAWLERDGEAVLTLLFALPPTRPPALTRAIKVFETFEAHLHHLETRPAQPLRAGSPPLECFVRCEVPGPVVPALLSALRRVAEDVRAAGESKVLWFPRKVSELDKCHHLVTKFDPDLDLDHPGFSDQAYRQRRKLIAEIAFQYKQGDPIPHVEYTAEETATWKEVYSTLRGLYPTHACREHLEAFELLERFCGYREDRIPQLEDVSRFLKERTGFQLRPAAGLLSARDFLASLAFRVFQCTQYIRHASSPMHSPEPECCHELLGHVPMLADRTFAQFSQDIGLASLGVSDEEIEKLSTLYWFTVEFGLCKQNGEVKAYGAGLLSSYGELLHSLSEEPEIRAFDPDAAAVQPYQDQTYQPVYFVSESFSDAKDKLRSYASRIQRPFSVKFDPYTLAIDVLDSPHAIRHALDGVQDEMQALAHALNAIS
Kind of data set: inhibition of tyrosine hydroxylase (method of J. Antibiot. 23, 514 (1970)). The conditions noted are these: for inhibition at 0.1 mg: at 100 meg. (figure after the slash in the cell); for inhibition at 0.1 mg / inhibition at 0.05 mg / inhibition: read-out: Inhibition of the product (1a) to tyrosine hydroxylase; for inhibition at 0.05 mg: at 50 meg. (figure after the slash in the cell); for inhibition: at 200 meg. (figure after the slash in the cell). The data set is classed as biochemical. Also on record: inhibition: dose or concentration left out as unconfirmed. The source says: (§1) Pharmacological properties of the new compounds of the present invention are now described. The new compounds of the present invention have been examined for their biological activities, and their inhibition to tyrosine hydroxylase are summarised in Table 2 later. The details of the test methods used and the close relationship of the biological activities between in vitro and in vivo are well presented in some published literatures (for example, see "J. Antibiot." 23, 514 (1970) and "J. Am. Chem. Soc." 93, 1285 (1971)). For instance, 2-(2-hydroxyhydrocinnamoyl)-1,3-cyclopentanedione, typical one of the new compounds of the present invention, was tested by dissolving in distilled water (pH was adjusted to 2.5) and administering to mice. […] Effect of this compound on tyrosine hydroxylase was also tested by the method described in the "Journal of Antibiotics" 23, 514 (1970).
In these Examples, various derivatives of 2cinnamoyl-1,3-cyclopentanedione of the formula [IVa] as prepared in Examples 3 - 34 were converted into the corresponding derivatives of 2-hydrocinnamoyl-1,3-cyclopentanedione of the formula [Ia] by hydrogenating them in the same manner as in the catalytic hydrogenation step of Example 1 (3). Nature of R1 and R2 in the resulting hydrogenation products 2-hydrocinnamoyl-1,3-cyclopentanediones [Ia], their yields, melting point and elementary analysis data are summarised in Table 2 with reference to the amount and nature of the catalyst and solvent which were employed in the catalytic hydrogenation step. In Table 2, there are also shown the degrees of inhibition (%) of the produced derivatives of 2-hydrocinnamoyl-1,3-cyclopentanedione [Ia] to tyrosine hydroxylase to provide a measure of their biological properties, the inhibition degrees as shown being determined by the same method as that used to estimate the inhibition % of 2-(2-hydroxyhydrocinnamoyl)-1,3-cyclopentanedione as mentioned above.

Data set [1] can be described thus: acute toxicity (LD50) in mice. The conditions noted are these: mouse, in vivo, dissolved in distilled water pH 2.5.
Source text: as §1

A further data set deals with mice. Description: sedative effect after injection of a large dose, mice. The data set is classed as in vivo.
For data set [2], the system named is rats. Kind of data set: sedative effect after injection of a large dose, rats. The format is in vivo.
The test system of data set [3] is rats. Kind of data set: blood pressure of rats on daily injection or oral administration. The format is in vivo. The protocol:
(§2) Hydroxylation of tyrosine is the rate-limiting step of norepinephrine biosynthesis. Therefore, inhibition of tyrosine hydroxylase results in inhibition of norepinephrine synthesis in vivo which results in lowering the blood pressure. […] The hypotensive effect can be seen more markedly, when it is given to genetically hypertensive rats which was developed by Prof. Okamoto, Midical School, University of Kyoto. When 6.25 mg/Kg. was intraperitoneally injected to a rat of 185 mm. blood pressure and another rat of 188 mm., then the blood pressure was lowered to […]. and 118-162 mm. respectively during 1-22 hours after the injection. When 125 mg/Kg. was intraperitoneally injected to a rat of 195 mm., the pressure was reduced to 155-166 mm. during 1-22 hours after the injection. […] It caused 20-30% reduction which continued for about 5 days after the last oral administration.

In data set [4] the test system is genetically hypertensive rats. Description: hypotensive effect in genetically hypertensive rats. The data set is classed as in vivo. The conditions noted are these: for blood pressure after injection: 1-22 hours after the injection. The protocol: as §2
The test system of a further data set is hypertensive patients. Description: daily administration to hypertensive patients for 30 days. The data set is classed as in vivo, human. The conditions noted are these: 300 mcg daily divided into three times.
The mark [5] stands for this setting: oral, daily 3.1, 6.25, 12.5, 25 mg/Kg for three days.

Consider `O=C1CCC(=O)C1C(=O)CCc1ccccc1` [Example 35, 2-hydrocinnamoyl-1,3-cyclopentanedione], for which, at tyrosine hydroxylase, the inhibition at 0.1 mg was found to be 60%.
On to `O=C1CCC(=O)C1C(=O)CCc1ccccc1O` [Example 38, 2-(2-hydroxyhydrocinnamoyl)-1,3-cyclopentanedione], for which the “inhibition to tyrosine hydroxylase” value worked out at 30% against tyrosine hydroxylase (at 12.5 mcg/cc), 38% against tyrosine hydroxylase (at 25 mcg/cc) and 44% against tyrosine hydroxylase (at 50 mcg/cc). Besides, the inhibition at 0.1 mg on tyrosine hydroxylase amounted to 52%. The “relation with 2-amino-4-hydroxy-6,7-dimethyltetrahydropteridine (Lineweaver-Burk plot)” value on tyrosine hydroxylase (cofactor 2-amino-4-hydroxy-6,7-dimethyltetrahydropteridine) is reported as “competitive”. Also, at tyrosine hydroxylase (substrate tyrosine), the “relation with tyrosine (Lineweaver-Burk plot)” value is given as “uncompetitive”. The 50% lethal dose (LD50) in data set [1] (ip, intraperitoneal injection) amounted to 283 mg/kg; in data set [1] (oral administration), 550 mg/kg. In addition, the sedative effect result with mice is “did not cause sleeping and the sedative effect was not recognized”; in the data set with rats [2] it was “did not cause sleeping and the sedative effect was not recognized”. The “effect on blood pressure” value with rats [3] is given as “lowered the blood pressure”. For the same compound, the “blood pressure after injection” value is on record as 25-155 mm in data set [4] (6.25 mg/Kg intraperitoneally, rat of 185 mm. blood pressure); 118-162 mm in data set [4] (6.25 mg/Kg intraperitoneally, rat of 188 mm. blood pressure); 155-166 mm in data set [4] (125 mg/Kg intraperitoneally, rat of 195 mm. blood pressure). Further, in data set [4] (setting [5]), the “duration of the blood pressure reduction after the last oral administration” value is reported as “about 5 days”. Besides, the “reduction of blood pressure” value in data set [4] (setting [5]) is 20-30%. Besides, in the data set with hypertensive patients, the hypotensive effect result is recorded as “showed hypotensive effect”. For the same compound, in the data set on hypertensive patients, the side effect result was “without any side effect”.
On to `O=C1CCC(=O)C1C(=O)CCc1cccc(O)c1` [Example 39, 2-(3-hydroxyhydrocinnamoyl)-1,3-cyclopentanedione], for which the inhibition at 0.1 mg on tyrosine hydroxylase is 23%.
With `O=C1CCC(=O)C1C(=O)CCc1ccc(O)cc1` [Example 40, 2-(4-Hydroxyhydrocinnamoyl)-1,3-cyclopentanedione], on tyrosine hydroxylase, the inhibition at 0.05 mg is 32%.
As to `COc1ccc(CCC(=O)C2C(=O)CCC2=O)cc1` [Example 41, 2-(4-Methoxyhydrocinnamoyl)-1,3-cyclopentanedione], on tyrosine hydroxylase, the inhibition at 0.1 mg turned out to be 29%.
With `O=C1CCC(=O)C1C(=O)CCc1ccccc1Cl` [Example 42, 2-(2-chlorohydrocinnamoyl)-1,3-cyclopentanedione], on tyrosine hydroxylase, the inhibition at 0.1 mg came out at 10%.
Same read-out and setting: the value for `O=C1CCC(=O)C1C(=O)CCc1ccc(Cl)cc1` [Example 43, 2-(4-chlorohydrocinnamoyl)-1,3-cyclopentanedione] was 42%.
Same read-out and setting: the value for `O=C1CCC(=O)C1C(=O)CCc1cccc(F)c1` [Example 44] was 36%.
As to `O=C1CCC(=O)C1C(=O)CCc1ccc(F)cc1` [Example 45, 2-(4-Fluorohydrocinnamoyl)-1,3-cyclopentanedione], the inhibition on tyrosine hydroxylase was 62%.
Still for that read-out and setting: the value for `O=C1CCC(=O)C1C(=O)CCc1ccccc1F` [Example 46] was 53%; that for `COc1ccccc1CCC(=O)C1C(=O)CCC1=O` [Example 47] was 7.6%.
In the case of `O=C1CCC(=O)C1C(=O)CCc1ccc(Br)cc1` [Example 48], the inhibition at 0.05 mg at tyrosine hydroxylase amounted to 50%.
Regarding `Cc1ccc(CCC(=O)C2C(=O)CCC2=O)cc1` [Example 49, 2-(4-methylhydrocinnamoyl)-1,3-cyclopentanedione], the inhibition at tyrosine hydroxylase amounted to 44%.
Same read-out and setting: the value for `COC(=O)c1ccc(CCC(=O)C2C(=O)CCC2=O)cc1` [Example 50, 2-(4-Methoxycarbonylhydrocinnamoyl)-1,3-cyclopentanedione] was 41%; that for `COc1cccc(CCC(=O)C2C(=O)CCC2=O)c1` [Example 51] was 6.4%.
Same read-out and setting: for `CCOc1ccc(CCC(=O)C2C(=O)CCC2=O)cc1` [Example 52] the value was 15.6%.
On the same count and under the same terms, for `O=C1CCC(=O)C1C(=O)CCc1cccc(Br)c1` [Example 53] the value was 50.7%.
As for `CC(C)c1ccc(CCC(=O)C2C(=O)CCC2=O)cc1` [Example 54], at tyrosine hydroxylase, the inhibition was found to be 36.8%.
As for `CCOC(=O)c1ccc(CCC(=O)C2C(=O)CCC2=O)cc1` [Example 55], the inhibition at tyrosine hydroxylase amounted to 12.8%.
Same read-out and setting: the value for `CCCOC(=O)c1ccc(CCC(=O)C2C(=O)CCC2=O)cc1` [Example 56] was 4.6%; that for `N#Cc1ccc(CCC(=O)C2C(=O)CCC2=O)cc1` [Example 57] was 77.4%.
With `CN(C)c1ccc(CCC(=O)C2C(=O)CCC2=O)cc1` [Example 58], the inhibition on tyrosine hydroxylase came to 10.1%.
As to `O=C1CCC(=O)C1C(=O)CCc1cccc(C(F)(F)F)c1` [Example 59], the inhibition at tyrosine hydroxylase worked out at 30.5%.
As for `CC(=O)Oc1ccccc1CCC(=O)C1C(=O)CCC1=O` [Example 60], at tyrosine hydroxylase, the inhibition at 0.1 mg is 10%.
In the case of `COc1cc(CCC(=O)C2C(=O)CCC2=O)ccc1O` [Example 61, 2-(4-Hydroxy-3-methoxyhydrocinnamoyl)-1,3-cyclopentanedione], the “inhibition to tyrosine hydroxylase” value at tyrosine hydroxylase (at 200 mcg/cc) was “about 10%”.
`O=C1CCC(=O)C1C(=O)CCc1ccc(Cl)c(Cl)c1` [Example 62, 2-(3,4-dichlorohydrocinnamoyl)-1,3-cyclopentanedione]: the “inhibition to tyrosine hydroxylase” value on tyrosine hydroxylase (at 100 mcg/cc) stood at 45%.
The same measure, in the same setting: for `O=C1CCC(=O)C1C(=O)CCc1ccc2c(c1)OCO2` [Example 63, 2-(3,4-methylenedioxyhydrocinnamoyl)-1,3-cyclopentanedione] the value was 22.5%.
As to `COc1ccc(CCC(=O)C2C(=O)CCC2=O)cc1O` [Example 64, 2-(3-hydroxy-4-methoxyhydrocinnomoyl)-1,3-cyclopentanedione], the “inhibition to tyrosine hydroxylase” value against tyrosine hydroxylase (at 200 mcg/cc) came to 29.5%.
Regarding `COc1cccc(CCC(=O)C2C(=O)CCC2=O)c1O` [Example 65, 2-(2-hydroxy-3-methoxyhydrocinnamoyl)-1,3-cyclopentanedione], the “inhibition to tyrosine hydroxylase” value on tyrosine hydroxylase (at 100 mcg/cc) worked out at 5%.
Same read-out and setting: for `O=C1CCC(=O)C1C(=O)CCc1ccc(O)c(O)c1` [Example 66, 2-(3,4-dihydroxyhydrocinnamoyl)-1,3-cyclopentanedione] the value was 85%.
